Test: Stroke statin response (SSR) in the CARE pravastatin trial: pravastatin-treated versus placebo-treated, by SNP genotype
Format: in vivo, human
Conditions: for HR (hazard ratio for stroke, pravastatin vs placebo): rs10757274 (hCV26505812), mode GEN, genotype AA, placebo = ref
Source text: (hCV26505812) for association with SSR in CARE (Table 37) and PROSPER (Table 38), including both unadjusted and adjusted analyses (adjusted for factors such as age, gender, smoking status, hypertension, diabetes, BMI, and LDL and HDL levels). Table 37 provides results in CARE, and Table 38 provides results in PROSPER (whether each analysis is unadjusted or adjusted is indicated in the “adjust” column in Table 37, or by “unadj” and “adj” column labels in Tables 38). With respect to Tables 22-32 and 37-38, the columns labeled “Genotype” (in Tables 22-28 and 37), “Geno_Placebo” (in Tables 29-30 and 38), and “Geno_Resp” (in Tables 31-32 and 38) indicate the genotype which the given stroke risk or SSR results correspond to. […] See Example Six below for further information relating to Tables 22-32 and 37-38. […] As used herein, the term “benefit” (with respect to a preventive or therapeutic drug treatment) is defined as achieving a reduced risk for a disease that the drug is intended to treat or prevent (e.g., stroke) by administrating the drug treatment, compared with the risk for the disease in the absence of receiving the drug treatment (or receiving a placebo in lieu of the drug treatment) for the same genotype. The term “benefit” may be used herein interchangeably with terms such as “respond positively” or “positively respond”. For stroke risk and statin response associations based on samples from the CARE and PROSPER trials described herein, stroke risk is assessed by comparing the risk of stroke for a given genotype with the risk of stroke for a reference genotype either in the placebo arm of the trial or in the whole study population of the trial, and statin response is assessed by comparing the risk of stroke in the pravastatin arm of the trial with the risk of stroke in the placebo arm of the trial for the same genotype. […] In CARE, SNPs were analyzed for association with stroke risk or SSR. […] Also in the CARE and PROSPER trials, the chromosome 9p21 SNP […] (hCV26505812) was analyzed further for association with SSR, including unadjusted and adjusted analysis. Adjusted analysis in CARE (Table 37) was adjusted for age, gender, smoking status, hypertension, diabetes, body mass index (BMI), and LDL and HDL levels, and adjusted analysis in PROSPER (Table 38) was adjusted for country, gender, age, LDL, HDL, smoking status (current vs. past or never), history of hypertension, and diabetes. Table 37 provides results in CARE, and Table 38 provides results in PROSPER (whether each analysis is unadjusted or adjusted is indicated in the “adjust” column in Table 37, or by “unadj” and “adj” column labels in Tables 38). All the p-values (including Pint values) provided in Tables 37-38 are two-sided p-values.

Compound: CC[C@H](C)C(=O)O[C@H]1C[C@H](O)C=C2C=C[C@H](C)[C@H](CC[C@@H](O)C[C@@H](O)CC(=O)O)[C@H]21 [pravastatin]
- HR (hazard ratio) for stroke events, pravastatin-treated versus placebo-treated (heterozygous carriers of SNP rs10757274 (chromosome 9p21), adjusted for traditional risk factors): 0.61
- HR (hazard ratio for stroke, pravastatin vs placebo) (adjusted (age, male, current smoking, hypertension, diabetes, BMI, baseline LDL, HDL)): 0.92
- HR (hazard ratio for stroke, pravastatin vs placebo) (unadjusted): 0.85
- EVENTS (number of stroke events) (rs10757274, adjusted analysis, mode REC, genotype GA + AA, pravastatin arm, total 1018): 47
